target: T1, hNLRP3 (Homo sapiens, UniProt Q96P20); assay: Measurement of IL-1β production in PMA-differentiated THP-1 cells (hNLRP3 agonist; ELISA, alternative and hTRF procedures); type: cell-based
T1 construct: THP-1 cells were purchased from the American Type Culture Collection; host or cells: THP-1 cells, PMA-differentiated
Description: Measurement of IL-1β production in PMA-differentiated THP-1 cells THP-1 cells were purchased from the American Type Culture Collection and sub-cultured according to instructions from the supplier. Prior to experiments, cells were cultured in RPMI 1640 containing 10% heat inactivated FBS, penicillin (100 units/ml) and streptomycin (100 μg/ml), and maintained in log phase prior to experimental setup. Prior to the experiment THP-1 were treated with PMA (Phorbol 12-myristate 13-acetate) ([…]) for 24 hours. The day of the experiment the media was removed and attaching cells were treated with trypsin for 2 minutes, cells were then collected, washed with PBS (phosphate buffer saline), spin down, resuspended in 2% heat inactivated FBS with RPMI at a concentration of 1×10^6 cells/ml, and 100 μl was plated in a 96 well plate. Compounds were dissolved in dimethyl sulfoxide (DMSO) and added to the culture medium to achieve desired concentration (e.g. 100, 30, 10, 3, 1, 0.3 or 0.1 μM). Cells were incubated with compounds for 4 hours. Cell free supernatant was collected and the production of […] was evaluated by ELISA. A vehicle only control was run concurrently with each experiment. Final DMSO concentration was 1%.
Measurement of IL-1β Production in PMA-Differentiated THP-1 Cells (Alternative Procedure)
THP-1 cells were purchased from the American Type Culture Collection and sub-cultured according to instructions from the supplier. Prior to experiments, cells were cultured in RPMI 1640 containing 10% heat inactivated FBS, penicillin (100 units/ml), streptomycin (100 μg/ml), HEPES (10 mM) and sodium pyruvate (1 mM) and maintained in log phase prior to experimental setup. Prior to the experiment, THP-1 cells were treated with PMA (Phorbol 12-myristate 13-acetate) (20 μg/ml) overnight. The day of the experiment, the media was removed and attached cells were treated with trypsin for 2 minutes, cells were then collected, washed with PBS (phosphate buffer saline), pelleted by centrifugation and resuspended in 2% heat inactivated FBS with RPMI at a concentration of 50,000 cells/well in a 384 well plate. Cell free supernatant was collected and the production of IL-1β was evaluated by ELISA. Compounds were dissolved in dimethyl sulfoxide (DMSO) and added to the culture medium to achieve desired concentration (e.g. 100, 30, 10, 3, 1, 0.3 or 0.1 μM). Cells were incubated with compounds for 2 hours. A vehicle only control was run concurrently with each experiment. Final DMSO concentration was 1%.
Measurement of IL-1β Production—hTRF Protocol (Second Alternative Procedure)
Serial dilutions of compounds in DMSO were added to low volume 384 well plates at 100 nl/well using an ECHO 550 acoustic dispenser (Labcyte) to achieve final starting concentration of 10 μM in assay.
THP-1 cells in RPMI (Gibco, 11875) media with 10% FBS at a density of 1×10^6 cell/ml in a T175 flask were treated with a final concentration of phorbol 12-myristate 13-acetate (PMA) (Sigma, P1585) of 50 ng/ml overnight at 37° C. at 5% CO2 for differentiation. Cells were harvested the next day after rinsing well with dPBS using 0.5% trypsin. A cell solution was prepared of 1×10^6 cells/ml for 50,000 cells in 50 μl/well in RPMI media with 2% FBS. Cells were plated using a multichannel pipette onto the compound dilutions in Greiner, 384 well, black clear bottom tissue culture treated plates (781090). The plates were incubated in 37° C. incubator at 5% CO2 for 2 hours.
After the 2 hour incubation, the cell plates were spun in the centrifuge for 5 minutes at 1200 rpm. Using the Felix (CyBio), 8 μl of the supernatant was transferred to 384 well, low volume, white proxy plates. (Perkin Elmer, 6008230). A human IL1beta hTRF kit was used to analyze the supernatant (CISBIO, 62HIL1BPEG). The kit instructions were followed for preparing the IL1Beta standard curve and then the antibodies from the kit were diluted 1:40 rather than 1:20 as kit instructed.

T1 sequence (Q96P20 whole entry): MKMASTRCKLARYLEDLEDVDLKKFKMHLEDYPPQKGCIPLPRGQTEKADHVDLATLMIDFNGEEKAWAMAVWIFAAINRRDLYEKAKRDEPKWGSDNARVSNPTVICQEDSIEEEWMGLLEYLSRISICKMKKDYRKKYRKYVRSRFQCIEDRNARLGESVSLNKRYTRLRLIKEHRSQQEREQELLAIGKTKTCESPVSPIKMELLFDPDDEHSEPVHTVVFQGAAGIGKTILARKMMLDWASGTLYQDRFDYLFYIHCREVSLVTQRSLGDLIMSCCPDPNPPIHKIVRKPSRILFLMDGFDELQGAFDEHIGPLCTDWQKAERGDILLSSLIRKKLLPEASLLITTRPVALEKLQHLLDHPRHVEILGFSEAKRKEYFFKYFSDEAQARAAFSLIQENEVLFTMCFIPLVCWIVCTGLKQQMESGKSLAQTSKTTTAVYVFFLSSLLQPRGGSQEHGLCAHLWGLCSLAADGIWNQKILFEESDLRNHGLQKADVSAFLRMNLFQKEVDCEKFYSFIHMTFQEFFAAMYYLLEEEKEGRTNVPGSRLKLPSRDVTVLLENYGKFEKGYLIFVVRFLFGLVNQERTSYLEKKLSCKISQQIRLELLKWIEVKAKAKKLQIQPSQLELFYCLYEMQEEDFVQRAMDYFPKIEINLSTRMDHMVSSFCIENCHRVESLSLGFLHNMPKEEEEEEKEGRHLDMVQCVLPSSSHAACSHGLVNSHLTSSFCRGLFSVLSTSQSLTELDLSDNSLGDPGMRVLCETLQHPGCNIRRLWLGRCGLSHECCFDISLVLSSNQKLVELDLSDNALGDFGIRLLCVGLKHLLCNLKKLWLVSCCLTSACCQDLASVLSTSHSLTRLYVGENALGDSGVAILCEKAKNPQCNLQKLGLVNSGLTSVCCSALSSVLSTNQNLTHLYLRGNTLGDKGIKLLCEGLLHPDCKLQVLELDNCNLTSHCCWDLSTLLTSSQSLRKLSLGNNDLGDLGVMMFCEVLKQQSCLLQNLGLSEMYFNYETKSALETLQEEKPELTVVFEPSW

Going from `Nc1nc2cc(-n3cccn3)ccc2c2[nH]c(CN3CC(c4ccccc4)CC3=O)nc12` (stereo not drawn) [Compound 103] to `CCN(Cc1nc2c(N)nc3cc(-n4cccn4)ccc3c2[nH]1)C(C)=O` [Compound 180, N-[(4-amino-7-pyrazol-1-yl-1H-imidazo[4,5-c]quinolin-2-yl)methyl]-N-ethylacetamide], the EC50 rises from 0.52 µM to 1.5 µM (2.9-fold).

First: CCN(Cc1nc2c(N)nc3cc(C)ccc3c2[nH]1)C(C)=O [Compound 104]
Second: CCN(Cc1nc2c(N)nc3cc(Br)ccc3c2[nH]1)C(C)=O [Compound 177]
The EC50 of the first is 12-fold lower: 0.6 µM for the first, 7.4 µM for the second.

`CCNCc1nc2c(N)nc3cc(-c4cc[nH]n4)ccc3c2n1C` [Compound 106, 2-((Ethylamino)methyl)-1-methyl-7-(1H-pyrazol-3-yl)-1H-imidazo[4,5-c]quinolin-4-amine] and `CCN(Cc1nc2c(N)nc3cc(-c4cc[nH]n4)ccc3c2[nH]1)C(=O)N(C)C` [Compound 110, 1-((4-Amino-7-(1H-pyrazol-3-yl)-1H-imidazo[4,5-c]quinolin-2-yl)methyl)-1-ethyl-3,3-dimethylurea] are within 1.5-fold of each other in EC50: 0.7 µM for the first, 0.9 µM for the second.

Compared with `CCN(Cc1nc2c(N)nc3cc(-n4cccn4)ccc3c2[nH]1)S(C)(=O)=O` [Compound 108, N-((4-Amino-7-(1H-pyrazol-1-yl)-1H-imidazo[4,5-c]quinolin-2-yl)methyl)-N-ethylmethanesulfonamide], `CCN(Cc1nc2c(N)nc3ccc(-n4cccn4)cc3c2[nH]1)C(C)=O` [Compound 207] is 84-fold higher in EC50: 0.87 µM for the first, 73 µM for the second. The first is the more potent here.

Going from `CCN(Cc1nc2c(N)nc3cc(-c4cc[nH]n4)ccc3c2[nH]1)C(=O)OC(C)(C)C` [Compound 109, tert-Butyl ((4-amino-7-(1H-pyrazol-3-yl)-1H-imidazo[4,5-c]quinolin-2-yl)methyl)(ethyl)carbamate] to `CCN(Cc1nc2c(N)nc3cc(-c4cccnc4)ccc3c2[nH]1)C(C)=O` [Compound 166, N-[(4-amino-7-pyridin-3-yl-1H-imidazo[4,5-c]quinolin-2-yl)methyl]-N-ethylacetamide], the EC50 rises from 0.88 µM to 3.4 µM (3.9-fold).

Compared with `Nc1nc2cc(C(F)(F)F)ccc2c2[nH]c(CN3CCCC3=O)nc12` [Compound 163], `CCN(Cc1nc2c(N)nc3cc(C4=CCCC4)ccc3c2[nH]1)C(C)=O` [Compound 183] is 93-fold lower in EC50: 48.4 µM for the first, 0.52 µM for the second. The second is the more potent here.

`CCN(Cc1nc2c(N)nc3ccccc3c2n1CCCC(=O)OC)C(C)=O` [Compound 164] and `COC(=O)CCCn1c(CN(C)C(C)=O)nc2c(N)nc3ccccc3c21` [Compound 188] are within 1.5-fold of each other in EC50: 4.6 µM for the first, 5.7 µM for the second.

First: CCN(Cc1nc2c(N)nc3cc(-c4ccccc4)ccc3c2[nH]1)C(C)=O [Compound 165, N-[(4-amino-7-phenyl-1H-imidazo[4,5-c]quinolin-2-yl)methyl]-N-ethylacetamide]
Second: CCN(Cc1nc2c(N)nc3cc(-c4ccncc4)ccc3c2[nH]1)C(C)=O [Compound 167, N-[(4-amino-7-pyridin-4-yl-1H-imidazo[4,5-c]quinolin-2-yl)methyl]-N-ethylacetamide]
The EC50 of the first is 310-fold lower: 0.19 µM for the first, 58 µM for the second. The first is the more potent here.

`CCN(Cc1nc2c(N)nc3cc(-c4cc(C)nn4C)ccc3c2[nH]1)C(C)=O` [Compound 168, N-[[4-amino-7-(2,5-dimethylpyrazol-3-yl)-1H-imidazo[4,5-c]quinolin-2-yl]methyl]-N-ethylacetamide] and `CCCn1cc(-c2ccc3c(c2)nc(N)c2nc(CN(CC)C(C)=O)[nH]c23)cn1` [Compound 169, N-[[4-amino-7-(1-propylpyrazol-4-yl)-1H-imidazo[4,5-c]quinolin-2-yl]methyl]-N-ethylacetamide] are within 1.5-fold of each other in EC50: 101 µM for the first, 92 µM for the second.

Compared with `CCN(Cc1nc2c(N)nc3cc(C(C)C)ccc3c2[nH]1)C(C)=O` [Compound 170, N-[(4-amino-7-propan-2-yl-1H-imidazo[4,5-c]quinolin-2-yl)methyl]-N-ethylacetamide], `CCN(Cc1nc2c(N)nc3cc(Cl)ccc3c2[nH]1)C(C)=O` [Compound 179, N-[(4-amino-7-chloro-1H-imidazo[4,5-c]quinolin-2-yl)methyl]-N-ethylacetamide] is 1.6-fold higher in EC50: 7.9 µM for the first, 12.5 µM for the second. The first is the more potent here.

Compared with `CCc1ccc2c(c1)nc(N)c1nc(CN(CC)C(C)=O)[nH]c12` [Compound 171, N-[(4-amino-7-ethyl-1H-imidazo[4,5-c]quinolin-2-yl)methyl]-N-ethylacetamide], `CCCc1ccc2c(c1)nc(N)c1nc(CN(CC)C(C)=O)[nH]c12` [Compound 172, N-[(4-amino-7-propyl-1H-imidazo[4,5-c]quinolin-2-yl)methyl]-N-ethylacetamide] is 1.5-fold lower in EC50: 3.2 µM for the first, 2.1 µM for the second.

Going from `CCN(Cc1nc2c(N)nc3cc(C4CCCC4)ccc3c2[nH]1)C(C)=O` [Compound 173, N-[(4-amino-7-cyclopentyl-1H-imidazo[4,5-c]quinolin-2-yl)methyl]-N-ethylacetamide] to `CCN(Cc1nc2c(N)nc3ccc(Br)cc3c2[nH]1)C(C)=O` [Compound 194], the EC50 rises from 0.84 µM to 7.9 µM (9.4-fold).

Compared with `CCN(Cc1nc2c(N)nc3cc(-c4cccnc4F)ccc3c2[nH]1)C(C)=O` [Compound 175, N-[[4-amino-7-(2-fluoropyridin-3-yl)-1H-imidazo[4,5-c]quinolin-2-yl]methyl]-N-ethylacetamide], `CCN(Cc1nc2c(N)nc3ccccc3c2[nH]1)C(C)=O` [Compound 176] is 9.9-fold higher in EC50: 2.6 µM for the first, 25.7 µM for the second. The first is the more potent here.

Compared with `CC(=O)N(C)Cc1nc2c(N)nc3ccccc3c2[nH]1` [Compound 187], `CCN(Cc1nc2c(N)nc3ccc(Cl)cc3c2[nH]1)C(C)=O` [Compound 197] is 4.7-fold lower in EC50: 64 µM for the first, 13.7 µM for the second. The second is the more potent here.

First: CCN(Cc1nc2c(N)nc3cc(C4CC4)ccc3c2n1Cc1ccc(OC)cc1)C(C)=O [Compound 190]
Second: CCN(Cc1nc2c(N)nc3cc(N4CCNC4=O)ccc3c2n1Cc1ccc(OC)cc1)C(C)=O [Compound 196]
The EC50 of the first is 3.2-fold lower: 10.3 µM for the first, 32.7 µM for the second. The first is the more potent here.

`CCN(Cc1nc2c(N)nc3ccccc3c2n1CCCNC(=O)OC(C)(C)C)C(C)=O` [Compound 191] and `CCN(Cc1nc2c(N)nc3ccccc3c2n1CCC(=O)N1CCN(C(=O)OC(C)(C)C)CC1)C(C)=O` [Compound 212] are within 1.5-fold of each other in EC50: 65 µM for the first, 85 µM for the second.

Going from `CCOC(=O)c1cc2c(cc1Br)nc(N)c1nc(CN(CC)C(C)=O)[nH]c12` [Compound 198] to `CCN(Cc1nc2c(N)nc3ccc(Br)cc3c2[nH]1)C(=O)OC` [Compound 200], the EC50 falls from 24.2 µM to 11.9 µM (2-fold).

Compared with `CCN(Cc1nc2c(N)nc3ccc(Br)cc3c2[nH]1)S(C)(=O)=O` [Compound 201], `CCN(Cc1nc2c(N)nc3ccc(Br)cc3c2[nH]1)S(=O)(=O)c1ccc(C)cc1` [Compound 202] is 1.7-fold higher in EC50: 20.8 µM for the first, 35.9 µM for the second.

First: CCN(Cc1nc2c(N)nc3ccc(Br)cc3c2[nH]1)C(=O)C(C)C [Compound 203]
Second: CCN(Cc1nc2c(N)nc3ccc(Br)cc3c2[nH]1)C(=O)c1ccccc1 [Compound 204]
The EC50 of the first is 1.6-fold higher: 10.8 µM for the first, 6.7 µM for the second.

`CCN(Cc1nc2c(N)nc3ccccc3c2n1CCC(=O)N1CCOCC1)C(=O)OC(C)(C)C` [Compound 205] and `CCN(Cc1nc2c(N)nc3ccccc3c2n1CCC(=O)N1CCN(C(=O)OC(C)(C)C)CC1)C(=O)OC(C)(C)C` [Compound 211] are within 1.5-fold of each other in EC50: 36 µM for the first, 40 µM for the second.

Going from `CCN(Cc1nc2c(N)nc3cc(Br)ccc3c2n1CCCC(=O)N1CCN(C)CC1)C(C)=O` [Compound 209] to `CCN(Cc1nc2c(N)nc3cc(Br)ccc3c2n1CCCC(=O)N1CCOCC1)C(C)=O` [Compound 214], the EC50 rises from 22 µM to 51.5 µM (2.3-fold).

First: CCN(Cc1nc2c(N)nc3cc(Br)ccc3c2n1CCCC(=O)NC)C(C)=O [Compound 210]
Second: CCN(Cc1nc2c(N)nc3cc(Br)ccc3c2n1CCCC(=O)N(C)C)C(C)=O [Compound 213]
The EC50 of the first is 3.5-fold higher: 61 µM for the first, 17.6 µM for the second. The second is the more potent here.

Work on `CN(C)C(=O)CCCn1c(CN2CCCC2=O)nc2c(N)nc3cc(Br)ccc3c21` [Compound 215] yielded an EC50 of 18.2 µM.

— patent US12351580B2, “NLRP3 modulators” (Innate Tumor Immunity, Inc., priority 2017, dated 2025)
